# Several values for one entry are separate records, joined by “and”; a condition that tells them apart may be missing. Equal entries are not always repeated.
# Key:
# Type in all cases: in vivo
# [1] = tested on: high dose LPS (E. coli 026:B6)-induced septic shock in BALB/c mice; assay: high dose LPS-induced septic shock, peptide administered twice; details: peptide twice (t = 2 and 24 hours) 5 mg/kg
# Procedure, shortened: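 Female BALB/c mice (8–12 weeks) given high-dose LPS (E. coli 026:B6) i.p., predetermined to cause 80–100% mortality in 24–72 h. Peptides in PBS at 5 mg/kg i.p. at 2 and 24 h after LPS; sickness scored 0–5 or dead.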
# [2] = tested on: LPS (E. coli 026:B6)-induced septic shock in BALB/c mice; assay: LPS-induced septic shock, single dose of peptide
# Method: Mice used in sepsis or septic shock experiments: Female BALB/c mice of eight to twelve weeks of age were used for all experiments. The animals were bred in our facility under specific pathogen-free conditions according to the protocols described in the […] of European Laboratory Animal Science Associations (FELASA) Working group on Animal Health (Laboratory Animals 28:1-24, 1994).
# Injection protocols: For the endotoxin model, BALB/c mice were injected i.p. with 150-300 μg LPS (E. coli 026:B6; Difco Lab., Detroit, Mich., USA). Control groups were treated with PBS i.p. only. To test the effect of peptides, they were dissolved in PBS and injected i.p. at predetermined points in time after LPS treatment.
# Mice were scored for sickness severity using the following measurement scheme: • 0 No abnormalities. • 1 Percolated fur, but no detectable behavior differences compared to normal mice. • 2 Percolated fur, huddle reflex, responds to stimuli (such as tap on cage), just as active during handling as healthy mouse. • 3 Slower response to tap on cage, passive or docile when handled, but still curious when alone in a new setting. • 4 Lack of curiosity, little or no response to stimuli, quite immobile. • 5 Labored breathing, inability or slow to self-right after being rolled onto back (moribund, sacrificed). • D Dead.
# A first set of septic shock experiments were set up to determine which of the peptides LQG, LQGV (SEQ ID NO:117), VLPALP (SEQ ID NO:140), VLPALPQ (SEQ ID NO:143), MTR, MTRV (SEQ ID NO:119), VVC or QVVC (SEQ ID NO:118) were capable of inhibiting lipopolysaccharide (LPS)-induced septic shock in mice by treating mice with a single dose of peptide at two hours after LPS treatment. Peptides were used at 5 mg/kg bodyweight. BALB/c mice were injected i.p. with escalating doses LPS (E. coli 026:B6; Difco Lab., Detroit, Mich. USA), predetermined to be leading to 80 to 100% mortality in 24 to 72 hours.
# To test the effect of peptide early in the development of shock, mice were treated at two hours or at 24 hours after treatment with varying doses of LPS by i.p. injection with test peptide at 5 mg/kg bodyweight.
# [3] = tested on: renal ischemia reperfusion in mice; assay: mouse renal ischemia reperfusion test; set-up: BUN after 25 minutes renal ischemia, mean / Urea levels in dose-response experiment: unit not given here
# Method: Six oligopeptides (i.e., A: LAGV (SEQ ID NO:121); B: AQGV (SEQ ID NO:120); C: LAG; D: AQG; E: MTR; and F: MTRV (SEO ID NO:119)) were tested and compared with PBS (control) in a double blind animal study for each peptide's relative ability to aid recovery in a mouse renal ischemia reperfusion test. In this test, the mice were anesthetized, and one kidney from each mouse was removed. The other kidney was tied off for 25 minutes, and the serum urea levels were allowed to increase. Both before and after tying off, each of the separate peptides was administered to thirty (30) different mice (5 mg oligopeptide / kg body mass intravenously), after which, the mortality of the mice was determined for each oligopeptide as well as was the BUN concentration at two hours, 24 hours and 72 hours. The results are shown in Table 3 below (excluding the results of peptide A (LAGV (SEQ ID NO:121)) obtained in Example 3).
# Under inhalation anesthesia, the left kidney with its artery and vein was isolated and occluded for 25 minutes using a microvascular clamp. During surgery, animals were placed on a heating pad to maintain body temperature at 37° C. Five minutes before placing the clamp, and five minutes before releasing the clamp, 5 mg/kg of peptide dissolved in 0.1 mL of sterile saline, was administered intravenously. After reperfusion of the left kidney, the right kidney was removed. Kidney function was assessed by measuring blood urea nitrogen before clamping, and at 2, 24, and 72 hours after reperfusion.
# Peptides were tested at 0.3, 1, 3, 10 and 30 mg/kg dosages given as described in Example 3. P values (calculated by Mann Whitney U-test (SPSS for Windows)) of serum urea levels of PBS compared to peptide D groups at 72 hours post-clamping were at 0.3 mg/kg 0.001, at 1 mg/kg 0.009, at 3 mg/kg 0.02, at 10 mg/kg 0.000, and at 30 mg/kg 0.23; for peptide B (SEQ ID NO:120) groups, these P-values were 0.88, 0.054, 0.000, 0.001 and 0.003.
# [4] = LPS dose 7**, single dose 5 mg/kg
# [5] = LPS dose 7*, single dose 5 mg/kg
# [6] = LPS dose 10, single dose 5 mg/kg
# [7] = LPS dose 10, single dose 5 mg/kg, 5 mg/kg
# [8] = 2 hours after reperfusion, 5 mg/kg i.v.
# [9] = 24 hours after reperfusion, 5 mg/kg i.v.
# [10] = 72 hours after reperfusion, 5 mg/kg i.v.
# [11] = t = 0 hr (before clamping), 5 mg/kg i.v.
# [12] = LPS dose 8, single dose 5 mg/kg
# [13] = LPS dose 8, single dose 5 mg/kg, 5 mg/kg
# [14] = LPS dose 9, single dose 5 mg/kg
# [15] = LPS dose 9, single dose 5 mg/kg, 5 mg/kg
substance,measurement,setting,value
MTRV,"mice with sickness score 1, effect at t = 48 hours",[1]; LPS dose 10.5,2
same,"mice with sickness score 2, effect at t = 24 hours",[1]; LPS dose 10.5,1
same,"mice with sickness score 2, effect at t = 48 hours",[1]; LPS dose 10.5,3
same,"mice with sickness score 3, effect at t = 24 hours",[1]; LPS dose 10.5,1
same,"mice with sickness score 4, effect at t = 24 hours",[1]; LPS dose 10.5,3
same,"mice with sickness score 1, effect at t = 48 hours",[1]; LPS dose 11,6
same,"mice with sickness score 2, effect at t = 24 hours",[1]; LPS dose 11,4
same,"mice with sickness score 4, effect at t = 24 hours",[1]; LPS dose 11,2
same,"mice scored D (dead), effect at t = 48 hours",[2]; [4],2
same,"mice with sickness score 1, effect at t = 48 hours",[2]; [4],3
same,"mice with sickness score 3, effect at t = 24 hours",[2]; [4],2
same,"mice with sickness score 3, effect at t = 48 hours",[2]; [4],1
same,"mice with sickness score 4, effect at t = 24 hours",[2]; [4],3
same,"mice with sickness score 5, effect at t = 24 hours",[2]; [4],1
same,"mice with sickness score 2, effect at t = 48 hours",[2]; [5],4
same,"mice with sickness score 3, effect at t = 24 hours",[2]; [5],3
same,"mice with sickness score 4, effect at t = 24 hours",[2]; [5],3
same,"mice with sickness score 5, effect at t = 48 hours",[2]; [5],2
same,"mice with sickness score 1, effect at t = 48 hours",[2]; [6],2
same,"mice with sickness score 3, effect at t = 48 hours",[2]; [6],1
same,"mice with sickness score 5, effect at t = 48 hours",[2]; [6],1
same,"mice with sickness score 2, effect at t = 24 hours",[2]; [7],2 and 1
same,"mice with sickness score 3, effect at t = 24 hours",[2]; [7],1 and 2
same,"mice with sickness score 4, effect at t = 24 hours",[2]; [7],2 and 1
same,"mice with sickness score 5, effect at t = 24 hours",[2]; [7],1 and 2
same,BUN concentration versus the PBS control group (in words),[3]; 5 mg/kg i.v.,reduced BUN concentration
same,mortality versus the PBS control group (in words),[3]; 5 mg/kg i.v.,significant reduction in mortality
same,mortality at 72 hours post-reperfusion,"[3]; 5 mg/kg i.v. before and after 25 minutes clamping, dead/total",2/10
same,"BUN after 25 minutes renal ischemia, mean",[3]; [8],15.09
same,"BUN after 25 minutes renal ischemia, mean",[3]; [9],34.57
same,"BUN after 25 minutes renal ischemia, mean",[3]; [10],39.8375
same,"BUN after 25 minutes renal ischemia, mean",[3]; [11],7.463
VLPALP (hexamer peptide),"mice scored D (dead), effect at t = 48 hours",[1]; LPS dose 10.5,5
same,"mice with sickness score 5, effect at t = 24 hours",[1]; LPS dose 10.5,5
same,"mice scored D (dead), effect at t = 48 hours",[1]; LPS dose 11,6
same,"mice with sickness score 4, effect at t = 24 hours",[1]; LPS dose 11,2
same,"mice with sickness score 4, effect at t = 48 hours",[1]; LPS dose 11,1
same,"mice with sickness score 5, effect at t = 24 hours",[1]; LPS dose 11,4
same,protective effect against LPS-induced sepsis (in words),[2]; 5 mg/kg i.p.,marked protective effect
same,"mice with sickness score 1, effect at t = 24 hours",[2]; [4],5
same,"mice with sickness score 1, effect at t = 48 hours",[2]; [4],5
same,"mice with sickness score 2, effect at t = 24 hours",[2]; [4],1
same,"mice with sickness score 2, effect at t = 48 hours",[2]; [4],1
same,"mice with sickness score 1, effect at t = 24 hours",[2]; [5],4
same,"mice with sickness score 1, effect at t = 48 hours",[2]; [5],5
same,"mice with sickness score 2, effect at t = 24 hours",[2]; [5],2
same,"mice with sickness score 2, effect at t = 48 hours",[2]; [5],1
same,"mice with sickness score 0, effect at t = 48 hours",[2]; [12],2
same,"mice with sickness score 3, effect at t = 48 hours",[2]; [12],1
same,"mice with sickness score 1, effect at t = 24 hours",[2]; [13],3 and 2
same,"mice with sickness score 1, effect at t = 48 hours",[2]; [13],3 and 5
same,"mice with sickness score 2, effect at t = 48 hours",[2]; [13],2 and 1
same,"mice scored D (dead), effect at t = 48 hours",[2]; [14],1
same,"mice with sickness score 1, effect at t = 24 hours",[2]; [14],2
same,"mice with sickness score 3, effect at t = 48 hours",[2]; [14],1
same,"mice with sickness score 4, effect at t = 24 hours",[2]; [14],1
same,"mice with sickness score 5, effect at t = 48 hours",[2]; [14],2
same,"mice with sickness score 2, effect at t = 24 hours",[2]; [15],3 and 4
same,"mice with sickness score 2, effect at t = 48 hours",[2]; [15],2 and 1
same,"mice with sickness score 3, effect at t = 24 hours",[2]; [15],1 and 2
same,"mice scored D (dead), effect at t = 48 hours",[2]; [6],2
same,"mice with sickness score 2, effect at t = 48 hours",[2]; [6],2
same,"mice with sickness score 3, effect at t = 48 hours",[2]; [6],2
same,"mice with sickness score 5, effect at t = 48 hours",[2]; [6],1
same,"mice with sickness score 1, effect at t = 48 hours",[2]; [7],3 and 2
same,"mice with sickness score 2, effect at t = 24 hours",[2]; [7],3 and 4
same,"mice with sickness score 4, effect at t = 24 hours",[2]; [7],3 and 2
same,"BUN after 25 minutes renal ischemia, mean",[3]; [8],16.24
same,"BUN after 25 minutes renal ischemia, mean",[3]; [9],62.4
same,"BUN after 25 minutes renal ischemia, mean",[3]; [10],47.05
same,"BUN after 25 minutes renal ischemia, mean",[3]; [11],8.423
LQG,"mice scored D (dead), effect at t = 48 hours",[1]; LPS dose 10.5,5
same,"mice with sickness score 5, effect at t = 24 hours",[1]; LPS dose 10.5,5
same,"mice scored D (dead), effect at t = 48 hours",[1]; LPS dose 11,6
same,"mice with sickness score 4, effect at t = 24 hours",[1]; LPS dose 11,6
same,"mice scored D (dead), effect at t = 24 hours",[2]; [4],1
same,"mice scored D (dead), effect at t = 48 hours",[2]; [4],5
same,"mice with sickness score 4, effect at t = 24 hours",[2]; [4],3
same,"mice with sickness score 4, effect at t = 48 hours",[2]; [4],1
same,"mice with sickness score 5, effect at t = 24 hours",[2]; [4],2
same,"mice scored D (dead), effect at t = 48 hours",[2]; [5],4
same,"mice with sickness score 4, effect at t = 24 hours",[2]; [5],3
same,"mice with sickness score 5, effect at t = 24 hours",[2]; [5],3
same,"mice with sickness score 5, effect at t = 48 hours",[2]; [5],2
same,"mice scored D (dead), effect at t = 24 hours",[2]; [12],1
same,"mice scored D (dead), effect at t = 48 hours",[2]; [12],6
same,"mice with sickness score 2, effect at t = 24 hours",[2]; [12],2
same,"mice with sickness score 3, effect at t = 24 hours",[2]; [12],1
same,"mice with sickness score 3, effect at t = 48 hours",[2]; [12],1
same,"mice with sickness score 4, effect at t = 48 hours",[2]; [12],2
same,"mice with sickness score 5, effect at t = 24 hours",[2]; [12],4
same,"mice with sickness score 5, effect at t = 48 hours",[2]; [12],3
same,"mice with sickness score 3, effect at t = 24 hours",[2]; [6],1
same,"mice with sickness score 4, effect at t = 24 hours",[2]; [6],2
same,"mice with sickness score 4, effect at t = 48 hours",[2]; [6],1
same,"mice with sickness score 5, effect at t = 48 hours",[2]; [6],2
same,"mice scored D (dead), effect at t = 48 hours",[2]; [7],4 and 3
same,"mice with sickness score 5, effect at t = 24 hours",[2]; [7],4 and 3
same,"BUN after 25 minutes renal ischemia, mean",[3]; [8],16.75
same,"BUN after 25 minutes renal ischemia, mean",[3]; [9],26.74
same,"BUN after 25 minutes renal ischemia, mean",[3]; [10],83.96
same,BUN concentration versus PBS (in words),"[3]; at 24 hours post-reperfusion, 5 mg/kg i.v.",reduced BUN concentration
same,"BUN after 25 minutes renal ischemia, mean",[3]; [11],7.821

# Reference: patent US7795226B2, “Control of radiation injury” (Biotempt B.V., priority 2006, dated 2010)
